Measurements published in article PMC10892041, “Vanadium Complexes with Thioanilide Derivatives of Amino Acids: Inhibition of Human Phosphatases and Specificity in Various Cell Models of Metabolic Disturbances” (Pharmaceuticals, 2024).
Where two headings read alike, the source gives them in different places.

Experiments:
adipocytes 3T3-L1 = assay: Scintillation proximity assay, transport of [14C]-deoxy-D-glucose into adipocytes 3T3-L1; assay type: cell-based, mouse; settings: 50 µM
Procedure: Adipocytes 3T3-L1 cell line (ATCC CRL-11605) derived from fibroblasts from mouse embryo tissue were cultured according to standard protocol in DMEM medium supplemented with 10% bovine calf serum, 100 IU/mL penicillin, and […] streptomycin at 37 °C in 5% CO2. Cells were seeded in 96-well poly-D-lysine-coated plates and cultured to reach confluency.
(§1) Scintillation proximity assay (SPA) is a method to measure the real-time accumulation of radiolabeled substrates by adherent cells with no filtration needed. Radioactivity concentrated closer to the scintillator embedded in the plastic bottom of each well provides a stronger signal than the radiolabeled substrate in the culture medium. Uptake of radiolabeled 2-deoxy-D-[U-14C]-glucose was conducted based on previous descriptions.
Adipocytes were washed and the medium was changed to the basal medium. After 24 h incubation, the tested complexes were added. After 2 h incubation at 37 °C in 5% CO2, the medium was changed to DMEM medium without glucose, with 0.1% BSA free from fatty acid, […] L-glutamine, and […] pyruvate. The tested complexes were added again, and further incubation for 4 h was conducted.
(§2) For cells proceeded as above, 2-deoxy-D-[U-14C]-glucose (250–350 mCi/mmol, NEC720A, PerkinElmer) solution in KRB with a total activity of 0.03 mCi was added to each well. […] Non-specific radioactivity was subtracted from each result (cpm). Two independent experiments with triplicates were conducted.

PTP1B = molecular target: T1, PTP1B (Homo sapiens, UniProt P18031); assay: Inhibition of human recombinant tyrosine phosphatase PTP1B (DiFMUP fluorescence); assay type: biochemical; settings: 1 µM; control solvent only; SD did not exceed 6%
T1 construct: purchased Sigma-Aldrich
T1 sequence (P18031 1-435): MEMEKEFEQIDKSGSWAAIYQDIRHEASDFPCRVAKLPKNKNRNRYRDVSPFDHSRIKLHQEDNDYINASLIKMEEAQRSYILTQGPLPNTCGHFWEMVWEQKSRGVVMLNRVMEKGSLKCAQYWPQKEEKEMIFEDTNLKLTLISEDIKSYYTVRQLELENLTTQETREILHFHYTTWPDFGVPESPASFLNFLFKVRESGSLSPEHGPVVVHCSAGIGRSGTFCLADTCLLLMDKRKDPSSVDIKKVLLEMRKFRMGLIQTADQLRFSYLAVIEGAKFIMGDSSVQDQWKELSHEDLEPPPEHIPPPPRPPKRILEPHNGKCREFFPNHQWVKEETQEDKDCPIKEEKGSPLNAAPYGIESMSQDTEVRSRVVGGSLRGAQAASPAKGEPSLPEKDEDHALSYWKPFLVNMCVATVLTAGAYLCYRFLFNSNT
Procedure: (§3) To determine the ability of the tested compounds for inhibition tyrosine phosphatases, human recombinant proteins were used (Sigma-Aldrich). The reactions were performed in black opaque 384-well microplates (PerkinElmer, Waltham, MA, USA). An equal volume of phosphatase solution in a reaction buffer (25 mM of 3-(N-morpholino)propanesulfonic acid (MOPS), 50 mM NaCl, 1 mM dithiothreitol (DTT), and 0.05% Tween-20 (pH 7.0)) was added to the solution of the tested compound on microplate. These solutions were dispensed using an automated injector. The following final concentrations of the tested phosphatases were used: PTP1B 50 ng/mL, SHP1 400 ng/mL, SHP2 50 ng/mL, LAR 5 ng/mL, and PTPRA 100 ng/mL. After 10 min, a solution of phosphate 6,8-difluoro-4-methyl (DiFMUP; Thermo Fisher Scientific) was added until its final concentration was 0.1 mM. Samples were incubated for 20 miN at 23 °C, and then the measurements of fluorescence intensity (excitation 355 and emission […]) were performed on a multifunctional plate reader POLARstar Omega (BMG Labtech, Ortenberg, Germany). Assays were performed in triplicate. For the screening assays, the final concentration of the tested compounds was 1 µM. The results were expressed as percent inhibition of untreated control (enzyme with vehicle only) for the screening tests. […] IC50 were calculated using GraphPad Prism version 6.0 software (GraphPad Software, Boston, MA, USA).

SHP1 = molecular target: T2, SHP1 (Homo sapiens, UniProt P29350); assay: Inhibition of human recombinant tyrosine phosphatase SHP1 (DiFMUP fluorescence); assay type: biochemical; settings: 1 µM; control solvent only; SD did not exceed 6%
T2 construct: purchased Sigma-Aldrich
Procedure: as §3

myocytes C2C12 [1] = assay: Scintillation proximity assay, transport of [14C]-deoxy-D-glucose into myocytes C2C12; assay type: cell-based, mouse; settings: for Transport of [14C]-deoxy-D-glucose into C2C12 myocytes, % of the control: 50 µM, control solvent only
Procedure: (§4) The myocyte C2C12 cell line (ATCC CRL-1772), a subclone of myoblasts from mouse muscles, was cultured according to standard protocol in DMEM supplemented with 10% fetal calf serum, 100 IU/ml penicillin, and […] streptomycin at 37 °C in 5% CO2. Cells were pleated on a 96-well microplate and after reach confluence were differentiated in medium with 2% horse serum. Differentiation medium was changed every 72 h.
as §1
(§5) After 24 h incubation, the tested complexes were added. After 2 h incubation at 37 °C in 5% CO2, the medium was changed to low-glucose medium (1000 mg/L), and the tested complexes were added again, with further incubation for 4 h being conducted.
as §2

LAR = molecular target: T3, LAR (Homo sapiens, UniProt P10586); assay: Inhibition of human recombinant tyrosine phosphatase LAR (DiFMUP fluorescence); assay type: biochemical; settings: 1 µM; control solvent only; SD did not exceed 6%
T3 sequence (P10586 1352-1607 limits assumed): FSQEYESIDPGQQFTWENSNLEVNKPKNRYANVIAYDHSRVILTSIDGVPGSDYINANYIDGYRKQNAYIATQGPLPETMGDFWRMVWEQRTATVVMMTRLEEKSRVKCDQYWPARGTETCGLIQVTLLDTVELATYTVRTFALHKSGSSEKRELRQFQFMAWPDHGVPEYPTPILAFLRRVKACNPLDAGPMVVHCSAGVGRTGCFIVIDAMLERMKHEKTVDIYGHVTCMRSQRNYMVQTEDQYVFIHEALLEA
Procedure: as §3

SHP2 = molecular target: T4, SHP2 (Homo sapiens, UniProt Q06124); assay: Inhibition of human recombinant tyrosine phosphatase SHP2 (DiFMUP fluorescence); assay type: biochemical; settings: 1 µM; control solvent only; SD did not exceed 6%
T4 construct: purchased Sigma-Aldrich
T4 sequence (Q06124 1-593): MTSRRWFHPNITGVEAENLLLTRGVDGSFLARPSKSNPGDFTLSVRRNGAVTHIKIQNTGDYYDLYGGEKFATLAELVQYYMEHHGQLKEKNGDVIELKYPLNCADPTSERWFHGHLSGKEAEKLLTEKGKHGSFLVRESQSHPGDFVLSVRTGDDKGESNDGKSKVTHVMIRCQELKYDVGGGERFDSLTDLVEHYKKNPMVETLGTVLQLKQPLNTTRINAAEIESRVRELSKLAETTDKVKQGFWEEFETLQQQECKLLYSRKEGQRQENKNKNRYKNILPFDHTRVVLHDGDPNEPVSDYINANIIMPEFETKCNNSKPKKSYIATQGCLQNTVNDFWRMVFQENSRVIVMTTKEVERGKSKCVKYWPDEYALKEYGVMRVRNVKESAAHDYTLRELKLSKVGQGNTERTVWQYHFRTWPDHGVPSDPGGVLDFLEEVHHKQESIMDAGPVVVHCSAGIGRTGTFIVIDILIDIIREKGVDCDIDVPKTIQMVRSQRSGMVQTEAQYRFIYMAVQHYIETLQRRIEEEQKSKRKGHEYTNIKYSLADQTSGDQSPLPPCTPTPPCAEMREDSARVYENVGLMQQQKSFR
Procedure: as §3

hepatocytes HepG2 [2] = assay: Inhibition of hepatic gluconeogenesis (glucose synthesis); settings: known inhibitors of gluconeogenesis; concentration not given
myocytes C2C12 [3] = assay: Glucose consumption (utilization) by myocytes C2C12; assay type: cell-based, mouse; settings: 50 µM (highest tested concentration); 24 h
Procedure: as §4
Differentiated myocytes C2C12 were used after 8 days of differentiation. The culture medium was changed for medium with 0.2% bovine serum albumin, 100 IU/mL penicillin, and 100 µg/mL streptomycin, and after 2 hours of incubation, the medium was changed to fresh medium containing the tested compounds. […]
Glucose concentration was determined based on enzymatic reaction with glucose oxidase and fluorometrically detection reaction end product using an AmplexRed Glucose/Glucose Oxidase Kit (Thermo Fisher Scientific) according to the manufacturer’s protocol. […] Fluorescence signal was measured at excitation of 530 nm and emission of 580 nm using a multimodal microplate reader POLARStar Omega (BMG Labtech), and glucose concentration in samples was calculated in MARS Data Analysis Software version 3.02.R2 (BMG Labtech) based on glucose standards. […] The final results were expressed as the percent of controls containing cells and solvent only.

myocytes C2C12 [4] = tested on: myocytes C2C12; parameters: method as in doi:10.1016/j.poly.2020.114589; settings: 50 µM; previously published by the authors; cited from earlier work
hepatocytes HepG2 [5] = assay: Transport of [14C]-deoxy-D-glucose into insulin-resistant hepatocytes (TNF or oleic acid); assay type: cell-based, human; settings: 10 µM; p ≤ 0.05
Procedure: as §5, §2
Next, the compounds in fresh medium were added, further incubation was carried out for 24 h, and the scintillation proximity assay for the uptake of radiolabeled 2-deoxy-D-[U-14C]-glucose was conducted as described in the section above.

myocytes C2C12 [6] = assay: Viability of myocytes C2C12 after 24 h incubation (resazurin-based reagent); settings: 50 µM
Procedure: Simultaneously with glucose consumption tests, the viability of myocytes C2C12 was examined due to their prolonged 24 h incubation with vanadium complexes.
Prolonged incubation of the cells with vanadium complexes, as was the case during the study of the effect on glucose consumption, more closely corresponds to the actual conditions of clinical use, also allowing for the identification of possible cytotoxic effects. […] A Resazurin-based reagent is reduced proportionally to the metabolic activity of cells as a result of the transference of electrons from NADPH+H^+, the amount of which strictly depends on glucose metabolism.

T2 sequence (P29350 whole entry): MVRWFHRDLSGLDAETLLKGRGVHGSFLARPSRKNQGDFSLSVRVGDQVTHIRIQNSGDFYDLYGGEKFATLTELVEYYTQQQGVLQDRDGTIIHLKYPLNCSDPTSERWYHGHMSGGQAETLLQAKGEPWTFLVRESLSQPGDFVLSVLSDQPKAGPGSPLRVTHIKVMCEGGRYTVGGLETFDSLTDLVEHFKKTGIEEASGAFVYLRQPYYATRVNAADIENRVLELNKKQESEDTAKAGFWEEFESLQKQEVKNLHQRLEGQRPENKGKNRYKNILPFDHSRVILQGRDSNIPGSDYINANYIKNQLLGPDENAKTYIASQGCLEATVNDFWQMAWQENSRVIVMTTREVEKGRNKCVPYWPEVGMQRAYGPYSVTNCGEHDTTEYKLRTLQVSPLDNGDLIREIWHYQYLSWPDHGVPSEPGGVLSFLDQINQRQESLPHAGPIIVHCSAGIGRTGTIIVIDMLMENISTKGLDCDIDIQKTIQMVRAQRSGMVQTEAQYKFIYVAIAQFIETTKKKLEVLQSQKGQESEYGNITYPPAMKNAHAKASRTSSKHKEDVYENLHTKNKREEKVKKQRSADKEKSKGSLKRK

| SMILES | Transport of [14C]-deoxy-D-glucose into 3T3-L1 adipocytes, % of control (adipocytes 3T3-L1) | Inhibition of PTP1B, percentage of inhibition of the control (PTP1B) [%] | Inhibition of SHP1, percentage of inhibition of the control (SHP1) [%] | Transport of [14C]-deoxy-D-glucose into C2C12 myocytes, % of the control (myocytes C2C12 [1]) | Inhibition of LAR, percentage of inhibition of the control (LAR) [%] | Inhibition of SHP2, percentage of inhibition of the control (SHP2) [%] | Inhibition of glucose synthesis by hepatocytes, experimental control compounds (hepatocytes HepG2 [2]) | Transport of [14C]-deoxy-D-glucose into C2C12 myocytes (myocytes C2C12 [1]; 10 and 1 µM) | Glucose consumption by myocytes C2C12, % of the control (myocytes C2C12 [3]) | Transport of [14C]-deoxy-D-glucose into C2C12 myocytes, % of the control (myocytes C2C12 [4]) | Reversal of decreased [14C]-deoxy-D-glucose transport, insulin resistance induced by oleic acid (hepatocytes HepG2 [5]) | Cell viability of myocytes C2C12, % of the control (myocytes C2C12 [6]) [%] |
| --- | --- | --- | --- | --- | --- | --- | --- | --- | --- | --- | --- | --- |
| CC(CC(=S)Nc1ccccc1)=NC(CC(C)C)C(=O)[O][V](=[O])([Cl])[Cl] (stereo not shown) [VC070, [VOCl2(L3)]·0.5Et2O·3HCl] | 159 % of control | 79 | 84 | 158 ± 10 % of control | 69 | 88 |  |  |  |  |  |  |
| NC(=O)c1ncn([C@@H]2O[C@H](CO)[C@@H](O)[C@H]2O)c1N [AICAR, 5-aminoimidazole-4-carboxamide riboside] |  |  |  |  |  |  | showed inhibition of glucose synthesis |  |  |  |  |  |
| O.O=C(NN=Cc1cc(Br)ccc1[O][V]1[O]C(c2ccccc2)=NN=Cc2cc(Br)ccc2[O]1)c1ccccc1 [VC032, [V(L8)(HL8)]⋅H2O] |  | 9 | 44 | 266 ± 36 % of control | 8 | 48 |  | significant effects | No statistically significant effect |  |  |  |
| O.[O]=[V]1[O]C(c2ccccc2O)=NN=Cc2cc(Br)ccc2[O]1.c1cnc2c(c1)ccc1cccnc12 [VC013, [VO(L6)(phen)]⋅H2O] | statistically significant activity | 60 | 67 |  | 66 | 74 |  |  |  |  |  |  |
| O=C(NN=Cc1cc(Br)ccc1[O][V]1[O]C(c2cc3ccccc3cc2O)=NN=Cc2cc(Br)ccc2[O]1)c1cc2ccccc2cc1O [VC067, [V(L12)(HL12)]] |  | 42 | 70 |  | 39 | 74 |  |  |  | 199 ± 3 % of control | reversed the decrease |  |
| COc1ccc(C(=O)NN=Cc2cc(Br)ccc2[O][V]2[O]C(c3ccc(OC)cc3)=NN=Cc3cc(Br)ccc3[O]2)cc1 [VC055, [V(L11)(HL11)]] |  | 24 | 56 |  | 18 | 57 |  |  | No statistically significant effect |  |  | 127 ± 5 |
